Experimental data taken from patent publication US20170334899A1, “AMINO-SUBSTITUTED ISOTHIAZOLES” (Bayer Pharma Aktiengesellschaft, priority 2014, published 2017).

What follows are molecules tested against T1, human kinase Mps-1 (Homo sapiens, UniProt P33981) (assay: Mps-1 kinase assay (TR-FRET)). Details: Mps-1 TR-FRET kinase assay; avg; read-out: Mps1 avg (IC50 [mol/l]).
T1 construct: N-terminally GST-tagged human full length recombinant Mps-1 kinase; GST (N); purchased Invitrogen, Karslruhe, Germany PV4071
T1 sequence (P33981 1-857): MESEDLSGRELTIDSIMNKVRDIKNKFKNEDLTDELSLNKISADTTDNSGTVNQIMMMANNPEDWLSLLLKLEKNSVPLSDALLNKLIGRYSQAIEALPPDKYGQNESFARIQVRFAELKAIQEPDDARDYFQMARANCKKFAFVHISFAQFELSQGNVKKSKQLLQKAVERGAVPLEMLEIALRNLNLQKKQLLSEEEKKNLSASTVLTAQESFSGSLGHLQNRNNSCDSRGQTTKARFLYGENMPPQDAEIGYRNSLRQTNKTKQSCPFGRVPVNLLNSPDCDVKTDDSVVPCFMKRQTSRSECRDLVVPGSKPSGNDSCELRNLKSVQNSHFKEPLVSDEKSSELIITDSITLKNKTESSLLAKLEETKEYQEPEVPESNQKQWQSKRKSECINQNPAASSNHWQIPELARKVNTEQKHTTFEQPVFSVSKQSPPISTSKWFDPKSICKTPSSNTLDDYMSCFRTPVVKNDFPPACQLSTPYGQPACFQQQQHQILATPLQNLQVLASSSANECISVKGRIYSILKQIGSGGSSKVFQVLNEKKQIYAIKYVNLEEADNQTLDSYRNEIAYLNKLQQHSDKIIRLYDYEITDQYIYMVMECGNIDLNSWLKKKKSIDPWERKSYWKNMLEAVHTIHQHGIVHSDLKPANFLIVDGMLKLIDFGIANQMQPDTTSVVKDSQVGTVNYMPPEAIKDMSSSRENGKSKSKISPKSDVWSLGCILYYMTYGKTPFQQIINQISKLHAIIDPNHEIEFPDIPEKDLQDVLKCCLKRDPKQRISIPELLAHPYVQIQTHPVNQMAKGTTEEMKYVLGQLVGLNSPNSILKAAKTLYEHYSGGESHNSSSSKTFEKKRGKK
Assay type: biochemical
Description: The human kinase Mps-1 phosphorylates a biotinylated substrate peptide. Detection of the phosphorylated product is achieved by time-resolved fluorescence resonance energy transfer (TR-FRET) from Europium-labelled anti-phospho-Serine/Threonine antibody as donor to streptavidin labelled with cross-linked allophycocyanin (SA-XLent) as acceptor. Compounds are tested for their inhibition of the kinase activity.
N-terminally GST-tagged human full length recombinant Mps-1 kinase (purchased from Invitrogen, Karslruhe, Germany, cat. no PV4071) was used. As substrate for the kinase reaction a biotinylated peptide of the amino-acid sequence biotin-Ahx-PWDPDDADITEILG (C-terminus in amide form, purchased from Biosyntan GmbH, Berlin) was used.
For the assay 50 nl of a 100-fold concentrated solution of the test compound in DMSO was pipetted into a black low volume 384we11 microtiter plate (Greiner Bio-One, Frickenhausen, Germany), 2 μl of a solution of Mps-1 in assay buffer [0.1 mM sodium-ortho-vanadate, 10 mM MgCl2,2 mM DTT, 25 mM Hepes pH 7.7, 0.05% BSA (w/v), 0.001% Pluronic F-127] were added and the mixture was incubated for 15 min at 22° C. to allow pre-binding of the test compounds to Mps-1 before the start of the kinase reaction. Then the kinase reaction was started by the addition of 3 μl of a solution of 16.7 μM adenosine-tri-phosphate (ATP, 16.7 μM=>final conc. in the 5 μl assay volume is 10 μM) and peptide substrate (1.67 μM=>final conc. in the 5 μl assay volume is 1 μM) in assay buffer and the resulting mixture was incubated for a reaction time of 60 min at 22° C. The concentration of Mps-1 in the assay was adjusted to the activity of the enzyme lot and was chosen appropriate to have the assay in the linear range, typical enzyme concentrations were in the range of about 0.5 nM (final conc. in the 5 μl assay volume). The reaction was stopped by the addition of 5 μl of a solution of TR-FRET detection reagents (100 mM Hepes pH 7.4, 0.1% BSA, 40 mM EDTA, 140 nM Streptavidin-XLent [#61GSTXLB, Fa. Cis Biointernational, Marcoule, France], 1.5 nM anti-phospho(Ser/Thr)-Europium-antibody [#AD0180, PerkinElmer LAS, Rodgau-Jugesheinn, Germany]. Instead of the 1.5 nM anti-phospho(Ser/Thr)-Europium-antibody a mixture of 2 nM unlabeled anti-phospho ser/thr-pro antibody MPM-2 [Millipore cat. #05-368] and 1 nM LANCE EU-W1024 labeled anti-mouse IgG antibody [Perkin-Elmer, product no. AD0077] can be used).
The resulting mixture was incubated 1 h at 22° C. to allow the binding of the phosphorylated peptide to the anti-phospho(Ser/Thr)-Europium-antibody. Subsequently the amount of phosphorylated substrate was evaluated by measurement of the resonance energy transfer from the Europium-labelled anti-phospho(Ser/Thr) antibody to the Streptavidin-XLent. Therefore, the fluorescence emissions at 620 nm and 665 nm after excitation at 350 nm was measured in a Viewlux TR-FRET reader (PerkinElmer LAS, Rodgau-Jugesheinn, Germany). The “blank-corrected normalized ratio” (a Viewlux specific readout, similar to the traditional ratio of the emissions at 665 nm and at 622 nm, in which blank and Eu-donor crosstalk are subtracted from the 665 nm signal before the ratio is calculated) was taken as the measure for the amount of phosphorylated substrate. The data were normalised (enzyme reaction without inhibitor=0% inhibition, all other assay components but no enzyme=100% inhibition).

| Compound | IC50 |
| --- | --- |
| Cc1nsc(Nc2cnc(C(F)(F)F)cn2)c1C(=O)Nc1ccc(O[C@@H]2CCN(CCC(F)(F)F)C[C@@H]2F)nc1 [Example 139, N-(6-{[(3S,4R)-3-fluoro-1-(3,3,3-trifluoropropyl)piperidin-4-yl]oxy}pyridin-3-yl)-3-methyl-5-{[5-(trifluoromethyl)pyrazin-2-yl]amino}-1,2-thiazole-4-carboxamide] | > 20 µM |
| CCCN1CC[C@@H](Oc2ccc(NC(=O)c3c(C)nsc3Nc3cnc(C(F)(F)F)cn3)cn2)[C@@H](F)C1 [Example 140, N-(6-{[(3S,4R)-3-fluoro-1-propylpiperidin-4-yl]oxy}pyridin-3-yl)-3-methyl-5-{[5-(trifluoromethyl)pyrazin-2-yl]amino}-1,2-thiazole-4-carboxamide] | > 20 µM |
| Cc1nsc(Nc2cnc(C(F)(F)F)cn2)c1C(=O)Nc1ccc(O[C@H]2CCN(CC(F)F)C[C@H]2F)nc1 [Example 144, N-(6-{[(3R,4S)-1-(2,2-difluoroethyl)-3-fluoropiperidin-4-yl]oxy}pyridin-3-yl)-3-methyl-5-{[5-(trifluoromethyl)pyrazin-2-yl]amino}-1,2-thiazole-4-carboxamide] | > 20 µM |
| Cc1nsc(Nc2cnc(C(F)(F)F)cn2)c1C(=O)Nc1ccc(O[C@H]2CCN(CC(F)(F)F)C[C@H]2F)nc1 [Example 145, N-(6-{[(3R,4S)-3-fluoro-1-(2,2,2-trifluoroethyl)piperidin-4-yl]oxy}pyridin-3-yl)-3-methyl-5-{[5-(trifluoromethyl)pyrazin-2-yl]amino}-1,2-thiazole-4-carboxamide] | > 20 µM |
| Cc1nsc(Nc2cnc(C(F)(F)F)cn2)c1C(=O)Nc1ccc(O[C@H]2CCN(CCC(F)(F)F)C[C@H]2F)nc1 [Example 146, N-(6-{[(3R,4S)-3-fluoro-1-(3,3,3-trifluoropropyl)piperidin-4-yl]oxy}pyridin-3-yl)-3-methyl-5-{[5-(trifluoromethyl)pyrazin-2-yl]amino}-1,2-thiazole-4-carboxamide] | > 20 µM |
| CCCN1CC[C@H](Oc2ccc(NC(=O)c3c(C)nsc3Nc3cnc(C(F)(F)F)cn3)cn2)[C@H](F)C1 [Example 147, N-(6-{[(3R,4S)-3-fluoro-1-propylpiperidin-4-yl]oxy}pyridin-3-yl)-3-methyl-5-{[5-(trifluoromethyl)pyrazin-2-yl]amino}-1,2-thiazole-4-carboxamide] | > 20 µM |
| Cc1nsc(Nc2cnc3cc(F)ccc3n2)c1C(=O)Nc1ccc(S(N)(=O)=O)cc1 [Example 149, 5-[(6-fluoroquinoxalin-2-yl)amino]-3-methyl-N-(4-sulfamoylphenyl)-1,2-thiazole-4-carboxamide] | > 20 µM |
| Cc1nsc(Nc2ccc(C#N)cn2)c1C(=O)Nc1cccc(S(C)(=O)=O)c1 [Example 150, 5-[(5-cyanopyridin-2-yl)amino]-3-methyl-N-[3-(methylsulfonyl)phenyl]-1,2-thiazole-4-carboxamide] | > 20 µM |

Further lines, results first:

| IC50 | Compound |
| --- | --- |
| > 20 µM | Cc1nsc(Nc2cnc(C(F)(F)F)cn2)c1C(=O)Nc1ccc(F)c(C(N)=O)c1 [Example 151, N-(3-carbamoyl-4-fluorophenyl)-3-methyl-5-{[5-(trifluoromethyl)pyrazin-2-yl]amino}-1,2-thiazole-4-carboxamide] |
| > 20 µM | CC(=O)Nc1cc(NC(=O)c2c(C)nsc2Nc2ccc(C#N)cn2)ccc1F [Example 152, N-(3-acetamido-4-fluorophenyl)-5-[(5-cyanopyridin-2-yl)amino]-3-methyl-1,2-thiazole-4-carboxamide] |
| > 20 µM | Cc1nsc(Nc2cnc(C(F)(F)F)cn2)c1C(=O)Nc1ccc(C(=O)NCCN2CCCC(F)(F)C2)cc1 [Example 153, N-(4-{[2-(3,3-difluoropiperidin-1-yl)ethyl]carbamoyl}phenyl)-3-methyl-5-{[5-(trifluoromethyl)pyrazin-2-yl]amino}-1,2-thiazole-4-carboxamide] |
| > 20 µM | Cc1nsc(Nc2cnc(C(F)(F)F)cn2)c1C(=O)Nc1ccc(C(=O)N2CCN(CC(F)F)CC2)cc1 [Example 154, N-(4-{[4-(2,2-difluoroethyl)piperazin-1-yl]carbonyl}phenyl)-3-methyl-5-{[5-(trifluoromethyl)pyrazin-2-yl]amino}-1,2-thiazole-4-carboxamide] |
| 18 µM | Cc1nsc(Nc2cncc(C(F)(F)F)n2)c1C(=O)Nc1ccc(C(=O)NCCN2CCCC(F)C2)cc1 (stereo not shown) [Example 155, N-(4-{[2-(3-fluoropiperidin-1-yl)ethyl]carbamoyl}phenyl)-3-methyl-5-{[6-(trifluoromethyl)pyrazin-2-yl]amino}-1,2-thiazole-4-carboxamide] |
| > 20 µM | Cc1nsc(Nc2cnc3ccccc3n2)c1C(=O)Nc1ccc(C(=O)NCCN2CCCC(F)(F)C2)cc1 [Example 156, N-(4-{[2-(3,3-difluoropiperidin-1-yl)ethyl]carbamoyl}phenyl)-3-methyl-5-(quinoxalin-2-ylamino)-1,2-thiazole-4-carboxamide] |
| > 20 µM | Cc1nsc(Nc2cnc3ccccc3n2)c1C(=O)Nc1ccc(C(=O)N2CCN(CC(F)F)CC2)cc1 [Example 157, N-(4-{[4-(2,2-difluoroethyl)piperazin-1-yl]carbonyl}phenyl)-3-methyl-5-(quinoxalin-2-ylamino)-1,2-thiazole-4-carboxamide] |
| > 20 µM | Cc1nsc(Nc2cnc3ccccc3n2)c1C(=O)Nc1ccc(C(=O)NC2CN(C(=O)OC(C)(C)C)CC(F)(F)C2)cc1 (stereo not shown) [Example 158, tert-butyl 3,3-difluoro-5-{[4-({[3-methyl-5-(quinoxalin-2-ylamino)-1,2-thiazol-4-yl]carbonyl}amino)benzoyl]amino} piperidine-1-carboxylate] |
| > 20 µM | Cc1nsc(Nc2cnc3ccccc3n2)c1C(=O)Nc1ccc(C(=O)N2CCCN(CC(F)(F)F)CC2)cc1 [Example 159] |
| > 20 µM | Cc1nsc(Nc2cnc(C(F)(F)F)cn2)c1C(=O)Nc1ccc(OC2CCN(C(C)C)CC2)nc1 [Example 160, N-{6-[(1-isopropylpiperidin-4-yl)oxy]pyridin-3-yl}-3-methyl-5-{[5-(trifluoromethyl)pyrazin-2-yl]amino}-1,2-thiazole-4-carboxamide] |
| > 20 µM | Cc1nsc(Nc2cnc(C(F)(F)F)cn2)c1C(=O)Nc1ccc(OC2CCN(CCF)CC2)c(F)c1 [Example 162, N-(3-fluoro-4-{[1-(2-fluoroethyl)piperidin-4-yl]oxy}phenyl)-3-methyl-5-{[5-(trifluoromethyl)pyrazin-2-yl]amino}-1,2-thiazole-4-carboxamide] |
